Article PMC9942557, “Bolaamphiphile Analogues of 12-bis-THA Cl2 Are Potent Antimicrobial Therapeutics with Distinct Mechanisms of Action against Bacterial, Mycobacterial, and Fungal Pathogens” (mSphere, 2022)
Read-outs that look alike come from different tables or passages of the source.

Experiments:
Dynamic light scattering = assay type: physicochemical; settings: 0.36 mM in water
Experimental: Stock solutions of bolalipids were prepared by dispersing the powder in ultrapure water, then stirring vigorously by vortexing, and sonicating in a 40°C bath sonicator for 20 min. The concentration of each stock solution corresponds to the highest solubility achieved in water for each bolalipid, using the method described above. DLS experiments were performed on a Malvern Zetasizer Nano (Malvern Instruments, Worcestershire, UK) in back-scattering mode at 20°C. There were three independent measurements of each sample and 12 runs for each measurement, with 10 s taken for each run. The attenuator index and measurement position were automatically adjusted. Fifty microliters of each sample was transferred into polystyrene semi-microcuvettes for determination of UV and visible wavelengths (Sarstedt).

P. aeruginosa PAO1 = assay: Checkerboard synergy assay; assay type: cell-based, Pseudomonas aeruginosa; settings: for MIC: Pseudomonas aeruginosa, read-out: MIC Alone Bolalipid
C. glabrata 8018 = assay: Broth microdilution MIC; assay type: cell-based; settings: C. glabrata 8018
[1] = system: VR Enterococcus faecium NCTC 12204; assay: Broth microdilution MIC; assay type: cell-based
[2] = system: Escherichia coli ATCC 25922; assay: Intrahemocoelic G. mellonella infection model; assay type: in vivo, Galleria mellonella; settings: single 10-mg/kg dose 1 h after infection
Experimental: The antimicrobial activities of DQC, CM2, and its analogues Quino-bola, Penta-bola, Hepta-bola, and Octa-bola against Escherichia coli ATCC 25922 were tested in Galleria mellonella larvae. All assays were performed on two separate occasions using a group size of 10 larvae; the larvae were kept in separate petri dishes and in a static incubator at 37°C during the period of the experiment. A suspension of E. coli ATCC 25922 was prepared by transferring two colonies of E. coli ATCC 25922 from a fresh agar plate into PBS and adjusting the absorbance to a McFarland 0.5 standard. The number of CFU per milliliter of this suspension was determined and corresponded to 1 × 10^8 CFU/mL. Larvae were injected beneath the tegument with 10 μL of a 1 × 10^7-CFU/mL bacteria suspension, corresponding to 1 × 10^5 CFU per larva. A 50-μL Hamilton syringe with a G27 needle was used for the injection. […] Ten microliters of stock solution was injected into each larva 1 h after infection (10 mg/kg). Levofloxacin (LVX; 50 μg/mL = 2 mg/kg) and PBS were used as positive and negative controls, respectively. A noninfected PBS injection was included to control for the effects of injection. Survival was monitored over a period of 70 to 72 h. Changes in G. mellonella survival were analyzed by the log rank (Mantel-Cox) method and plotted as Kaplan-Meier survival curves using GraphPad Prism version 7.

[3] = Patch-clamp conductance in model membranes; settings: bilayers composed of DPhPG
Experimental: Giant unilamellar vesicles (GUVs) composed of DiPhytanoly PhosphatidylGlycerol (DPhPG) were prepared in the presence of 1 M sorbitol by the electroformation method in an indium-tin oxide (ITO)-coated glass chamber connected to the Nanion Vesicle Prep Pro setup (Nanion Technologies GmbH, Munich, Germany) using a 3-V peak-to-peak AC voltage at a frequency of 5 Hz for 140 min at 37°C ([30][–][32]). Bilayers were formed by adding the GUV solution to a buffer containing 250 mM KCl, 50 mM MgCl2, and 10 mM HEPES (pH 7.00) onto an aperture in a borosilicate chip (Port-a-Patch; Nanion Technologies) and applying 7,000 to 9,000 Pa negative pressure, resulting in a solvent-free membrane with a resistance in the GΩ range. […] After formation, a small amount of bolalipid stock solution (in water) was added to 50 μL of buffer solution in order to obtain its active concentration. All the experiments were carried out with a positive holding potential of 50 mV. […] For all the experiments, a minimum of 6 concordant repeats were done. Current traces were recorded at a sampling rate of 50 kHz using an EPC-10 amplifier from HEKA Elektronik (Lambrecht, Germany). The system was computer controlled by PatchControl software (Nanion) and GePulse (Michael Pusch, Genoa, Italy [http://users.ge.ibf.cnr.it/pusch/software-mik.htm]). […]

M. tuberculosis Bleupan [4] = assay: Selectivity index (toxicity/potency); assay type: cell-based, Mycobacterium tuberculosis; settings: ratio of average toxicity (HEK293 and HeLa) to potency
Source text: TABLE 3 Selectivity indices of bolaamphiphiles | column: Selectivity of^a: / 12-bis-THA Cl2; Selectivity of^a: / Dequalinium; Selectivity of^a: / Penta-bola; Selectivity of^a: / Octa-bola; Selectivity of^a: / Octa-C8; Selectivity of^a: / Octa-C6

M. tuberculosis Bleupan [5] = assay type: in vivo, Galleria mellonella
G. vaginalis KC1 = assay: Anaerobic broth microdilution MIC (BHI, 5% horse serum); assay type: cell-based, Gardnerella vaginalis; settings: Gardnerella vaginalis, read-out: MIC
[6] = system: Gram-positive bacteria (avg); assay: Selectivity index (toxicity/potency); assay type: cell-based; settings: ratio of average toxicity (HEK293 and HeLa) to average potency
Candida auris TGD1912 [7] = assay: Fluorescence microscopy, accumulation of bolalipid; assay type: cell-based; settings: 0.18 mM (approximately 54× the MIC), 30 min
Experimental: Candida auris cells were picked from a yeast extract-peptone-dextrose (YPD) agar plate and resuspended in 35 mL of sterile distilled water (dH2O). After resuspension, 150 μL of cells was inoculated in 100 mL of YPD broth overnight at 30°C with shaking at 130 rpm and grown to exponential phase (5 × 10^6 to 5 × 10^7 cells/mL). Cells (6 × 10^8) were washed in standard defined (SD) medium twice (pelleted at 1,500 × g for 5 min and resuspended in 10 mL SD medium [yeast nitrogen base without the amino acids D-glucose, methionine, adenine, histidine, tryptophan, uracil, leucine, and lysine]), followed by resuspension in 1 mL SD medium containing 0.18 mM Penta-bola, and incubated at 37°C for 30 min. After treatment with the Penta-bola, cells were pelleted and resuspended in Hanks’ balanced salt solution (HBSS) and 50 μg/mL CF594 concanavalin A (Biotium). After incubation at 37°C for 30 min, cells were washed once with HBSS and resuspended in 1 mL of HBSS. Polysine adhesion slides (Thermo Scientific) were prepared by spreading 20 μL of treated cells and allowing them to dry for 30 min before adding one drop of Fluoromount (Sigma-Aldrich, Germany) aqueous mounting medium. Fluorescence images were acquired using a Leica fluorescence microscope at ×100 magnification. […]

Candida auris TGD1912 [8] = assay: MIC; assay type: cell-based
[9] = VR Enterococcus faecium NCTC 12204
[10] = Nakaseomyces glabratus, read-out: MIC
[11] = NCTC12204, VR Enterococcus faecium NCTC 12204, read-out: MIC

| Structure (SMILES) | nanoparticle formation (DLS) (Dynamic light scattering) | MIC alone Bolalipid (P. aeruginosa PAO1) [µg/mL] | MIC (C. glabrata 8018) [µg/mL] | MIC [1, 9] [µg/mL] | protection (survival over 72 h) [2] | concentration required to induce any conductance [3] [µM] | Selectivity index (M. tuberculosis Bleupan [4]) | MIC (P. aeruginosa PAO1) [µg/mL] | MIC (C. glabrata 8018; [10]) [µg/mL] | MIC [1, 11] [µg/mL] | survival (M. tuberculosis Bleupan [5]; 0.1 mg/kg) | survival (M. tuberculosis Bleupan [5]; higher or lower doses than 0.1 mg/kg) | MIC (G. vaginalis KC1) [µg/mL] | Selectivity index [6] | infected larvae rescued (M. tuberculosis Bleupan [5]; 1 mg/kg) | cell integrity / accumulation of bolalipid (Candida auris TGD1912 [7]) | MIC (Candida auris TGD1912 [8]) [µg/mL] | MIC ([1]; Enterococcus faecium, NCTC12204) [µg/mL] |
| --- | --- | --- | --- | --- | --- | --- | --- | --- | --- | --- | --- | --- | --- | --- | --- | --- | --- | --- |
| Nc1c2c([n+](CCCCCCCCCCCC[n+]3c4c(c(N)c5ccccc53)CCCC4)c3ccccc13)CCCC2 [12-bis-THA Cl2, 12,12′-(Dodecane-1,12-diyl)-bis-(9-amino-1,2,3,4-tetrahydroacridinium) chloride] | to some extent | 32 | 0.25 | 0.5 | survival was somewhat better than that obtained in the absence of treatment | 90 |  |  |  |  |  |  |  |  |  |  |  |  |
| Cc1cc(N)c2ccccc2[n+]1CCCCCCCCCC[n+]1c(C)cc(N)c2ccccc21 [Dequalinium, dequalinium chloride, reference compound] | readily form nanoparticles |  |  |  | protective | 90 | 6.35 | > 32 | 0.5 | 8 | lower survival | indifferent | 2 | 2.65 |  |  |  |  |
| Nc1c2c([n+](CCCCCCCCCCCC[n+]3c4c(c(N)c5ccccc53)CCCCCC4)c3ccccc13)CCCCCC2 [Octa-bola] | readily form nanoparticles |  |  |  | significantly protective |  | 17.3 | 32 | 0.5 | 0.5 |  |  |  | 17.4 | about half |  |  |  |
| Nc1c2c([n+](CCCCCCCCCCCC[n+]3c4c(c(N)c5ccccc53)CCC4)c3ccccc13)CCC2 [Penta-bola] | to some extent | 32 | 0.25 | 1 | neither Quino-bola nor Penta-bola offered significant protection |  |  |  |  |  |  |  |  |  |  | the cells remained intact | 2 |  |
| Cc1c(N)c2ccccc2[n+](CCCCCCCCCCCC[n+]2c(C)c(C)c(N)c3ccccc32)c1C [Quino-bola] |  |  |  |  | neither Quino-bola nor Penta-bola offered significant protection |  |  | > 32 | 0.25 |  |  |  |  | 8.94 |  |  |  | 2 |
